The target in this assay is recombinant mTOR (Homo sapiens, UniProt P42345). Briefly: In Vitro mTOR Kinase Assay (Echo), Test (a)(ii) (AlphaScreen). As to conditions: Echo acoustic dispensing. The assay is classed as biochemical. As to the method: (a)(ii) In Vitro mTOR Kinase Assay (Echo)
The assay used AlphaScreen technology (Gray et al., Analytical Biochemistry, 2003, 313: 234-245) to determine the ability of test compounds to inhibit phosphorylation by recombinant mTOR.
The HEK293 FLAG-tagged mTOR (1362-2549) stable cell line was routinely maintained at 37° C. with 5% CO2 up to a confluency of 70-90% in Dulbecco's modified Eagle's growth medium (DMEM; Invitrogen Limited, Paisley, UK Catalogue No. 41966-029) containing 10% heat-inactivated foetal calf serum (FCS; Sigma, Poole, Dorset, UK, Catalogue No. F0392), 1% L-glutamine (Gibco, Catalogue No. 25030-024) and 2 mg/ml Geneticin (G418 sulfate; Invitrogen Limited, UK Catalogue No. 10131-027). Following expression in the mammalian HEK293 cell line, expressed protein was purified using the FLAG epitope tag using standard purification techniques.
Aliquots ([…]) of each compound dilution were acoustically […] using a Labcyte Echo 550 into a well of a Greiner 384-well low volume (LV) white polystyrene plate (Greiner Bio-one). A […] mixture of recombinant purified mTOR enzyme, 1 μM biotinylated peptide substrate (Biotin-Ahx-[…]NH2; Bachem UK Ltd), ATP (20 μM) and a buffer solution [comprising Tris-HCl pH7.4 buffer (50 mM), EGTA (0.1 mM), bovine serum albumin (0.5 mg/mL), DTT (1.25 mM) and manganese chloride (10 mM)] was incubated at room temperature for […].
These assay solutions were incubated for 2 hours at room temperature.
Each reaction was stopped by the addition of […] of a mixture of EDTA (50 mM), bovine serum albumin (BSA; 0.5 mg/mL) and Tris-HCl pH7.4 buffer (50 mM) containing
p70 S6 Kinase (T389) 1A5 Monoclonal Antibody (Cell Signalling Technology, Catalogue No. 9206B) and AlphaScreen Streptavidin donor and Protein A acceptor beads (200 ng; Perkin Elmer, Catalogue No. 6760002B and 6760137R respectively) were added and the assay plates were left overnight at room temperature in the dark. The resultant signals arising from laser light excitation at 680 nm were read using a Packard Envision instrument.
The phosphorylated biotinylated peptide that is associated with AlphaScreen Streptavidin donor beads forms a complex with the p70 S6 Kinase (T389) 1A5 Monoclonal Antibody that is associated with Alphascreen Protein A acceptor beads. Upon laser light excitation at 680 nm, the donor bead : acceptor bead complex produces a signal that can be measured. Accordingly, the presence of mTOR kinase activity results in an assay signal. In the presence of an mTOR kinase inhibitor, signal strength is reduced. mTOR enzyme inhibition for a given test compound was expressed as an IC50 value.

recombinant mTOR, sequence (P42345 1362-2549): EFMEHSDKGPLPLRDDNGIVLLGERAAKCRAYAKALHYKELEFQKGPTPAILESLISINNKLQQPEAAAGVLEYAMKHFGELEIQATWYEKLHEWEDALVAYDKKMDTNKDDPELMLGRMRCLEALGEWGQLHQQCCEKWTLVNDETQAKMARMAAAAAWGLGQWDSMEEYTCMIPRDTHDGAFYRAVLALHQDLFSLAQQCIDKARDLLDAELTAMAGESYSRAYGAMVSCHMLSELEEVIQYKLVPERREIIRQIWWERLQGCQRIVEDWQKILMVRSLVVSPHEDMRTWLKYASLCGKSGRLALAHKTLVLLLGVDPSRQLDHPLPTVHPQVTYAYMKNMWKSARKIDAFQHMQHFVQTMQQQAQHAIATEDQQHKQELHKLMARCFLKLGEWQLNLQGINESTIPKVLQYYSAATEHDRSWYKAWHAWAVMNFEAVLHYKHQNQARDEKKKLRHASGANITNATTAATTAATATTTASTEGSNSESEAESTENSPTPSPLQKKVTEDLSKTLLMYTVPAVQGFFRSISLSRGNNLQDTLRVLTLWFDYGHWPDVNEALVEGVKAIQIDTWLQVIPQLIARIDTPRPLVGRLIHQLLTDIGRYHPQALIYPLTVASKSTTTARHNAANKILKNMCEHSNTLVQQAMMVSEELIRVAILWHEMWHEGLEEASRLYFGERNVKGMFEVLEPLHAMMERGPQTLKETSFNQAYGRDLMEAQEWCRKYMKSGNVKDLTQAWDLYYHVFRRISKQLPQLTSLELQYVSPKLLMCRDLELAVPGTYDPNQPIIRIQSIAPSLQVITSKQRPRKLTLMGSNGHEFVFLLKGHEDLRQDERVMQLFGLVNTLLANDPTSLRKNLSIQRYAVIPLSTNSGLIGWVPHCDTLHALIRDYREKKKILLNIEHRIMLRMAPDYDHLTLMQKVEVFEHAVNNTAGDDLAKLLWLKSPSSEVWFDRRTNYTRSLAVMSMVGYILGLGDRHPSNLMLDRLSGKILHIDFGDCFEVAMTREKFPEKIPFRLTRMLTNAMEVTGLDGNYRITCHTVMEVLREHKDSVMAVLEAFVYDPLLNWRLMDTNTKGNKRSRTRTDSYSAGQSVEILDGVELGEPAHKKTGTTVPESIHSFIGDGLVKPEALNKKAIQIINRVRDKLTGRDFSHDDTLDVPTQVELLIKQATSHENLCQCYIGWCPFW

As for `C[C@H]1COCCN1c1cc(C(C)(C)O)nc(-c2ccc(NC(=S)NC3CC3)cc2)n1` [Example 5b, 3-cyclopropyl-1-[4-[4-(2-hydroxypropan-2-yl)-6-[(3S)-3-methylmorpholin-4-yl]pyrimidin-2-yl]phenyl]thiourea], the IC50 (as a rule, the point on the concentration scale where inhibition reaches its midpoint) came out at 38.4 nM.
Next, `CNC(=S)Nc1ccc(-c2nc(N3CCOC[C@@H]3C)cc(C(C)(C)O)n2)cc1` [Example 5a, 1-[4-[4-(2-hydroxypropan-2-yl)-6-[(3S)-3-methylmorpholin-4-yl]pyrimidin-2-yl]phenyl]-3-methylthiourea]: 36.7 nM.
Take `CCNC(=S)Nc1ccc(-c2nc(N3CCOC[C@@H]3C)cc(C(C)(C)S(=O)(=O)c3ccccc3)n2)cc1` [Example 3b, 1-[4-[4-[2-(benzenesulfonyl)propan-2-yl]-6-[(3S)-3-methylmorpholin-4-yl]pyrimidin-2-yl]phenyl]-3-ethylthiourea]: the IC50 was determined as 12.4 nM.
Next, `COc1ccc(NC(=S)Nc2ccc(-c3nc(CS(C)(=O)=O)cc(N4CCOC[C@@H]4C)n3)cc2)cc1` [Example 1c, 3-(4-methoxyphenyl)-1-[4-[4-[(3S)-3-methylmorpholin-4-yl]-6-(methylsulfonylmethyl)pyrimidin-2-yl]phenyl]thiourea]: 68.8 nM; `C[C@H]1COCCN1c1cc(C(C)(C)S(=O)(=O)c2ccccc2)nc(-c2ccc(NC(=S)NC3CC3)cc2)n1` [Example 3a, 1-[4-[4-[2-(benzenesulfonyl)propan-2-yl]-6-[(3S)-3-methylmorpholin-4-yl]pyrimidin-2-yl]phenyl]-3-cyclopropylthiourea]: 7.17 nM.
Regarding `CCNC(=S)Nc1ccc(-c2nc(N3CCOC[C@@H]3C)cc(C(C)(C)S(C)(=O)=O)n2)cc1` [Example 2b, 3-ethyl-1-[4-[4-[(3S)-3-methylmorpholin-4-yl]-6-(2-methylsulfonylpropan-2-yl)pyrimidin-2-yl]phenyl]thiourea], the IC50 stood at 6.8 nM.
With `CNC(=S)Nc1ccc(-c2nc(N3CCOC[C@@H]3C)cc(C(C)(C)S(=O)(=O)CCCO)n2)cc1` [Example 4b, 1-[4-[4-[2-(3-hydroxypropylsulfonyl)propan-2-yl]-6-[(3S)-3-methylmorpholin-4-yl]pyrimidin-2-yl]phenyl]-3-methylthiourea], the IC50 came to 154 nM.
For `CCNC(=S)Nc1ccc(-c2nc(N3CCOC[C@@H]3C)cc(C(C)(C)S(=O)(=O)CCCO)n2)cc1` [Example 4c, 3-ethyl-1-[4-[4-[2-(3-hydroxypropylsulfonyl)propan-2-yl]-6-[(3S)-3-methylmorpholin-4-yl]pyrimidin-2-yl]phenyl]thiourea], the IC50 was found to be 58.5 nM.
To `C[C@H]1COCCN1c1cc(C(C)(C)S(=O)(=O)CCCO)nc(-c2ccc(NC(=S)NC3CC3)cc2)n1` [Example 4, 3-Cyclopropyl-1-[4-[4-[2-(3-hydroxypropylsulfonyl)propan-2-yl]-6-[(3S)-3-methylmorpholin-4-yl]pyrimidin-2-yl]phenyl]thiourea] belongs 161 nM; to `C[C@H]1COCCN1c1cc(C(C)(C)S(=O)(=O)CCCO)nc(-c2ccc(NC(=S)NCCO)cc2)n1` [Example 4a, 3-(2-hydroxyethyl)-1-[4-[4-[2-(3-hydroxypropylsulfonyl)propan-2-yl]-6-[(3S)-3-methylmorpholin-4-yl]pyrimidin-2-yl]phenyl]thiourea], 15.5 nM; to `CCNC(=S)Nc1ccc(-c2nc(N3CCOC[C@@H]3C)cc(C(C)(C)O)n2)cc1` [Example 5c, 3-ethyl-1-[4-[4-(2-hydroxypropan-2-yl)-6-[(3S)-3-methylmorpholin-4-yl]pyrimidin-2-yl]phenyl]thiourea], 37.4 nM.
On to `C[C@H]1COCCN1c1cc(C(C)(C)S(=O)(=O)c2ccccc2)nc(-c2ccc(NC(=S)NCCO)cc2)n1` [Example 3c, 1-[4-[4-[2-(benzenesulfonyl)propan-2-yl]-6-[(3S)-3-methylmorpholin-4-yl]pyrimidin-2-yl]phenyl]-3-(2-hydroxyethyl)thiourea], for which the half-inhibitory concentration (IC50) came to 3.08 nM.
Regarding `CNC(=S)Nc1ccc(-c2nc(N3CCOC[C@@H]3C)cc(C(C)(C)S(=O)(=O)c3ccccc3)n2)cc1` [Example 3, 1-[4-[4-[2-(Benzenesulfonyl)propan-2-yl]-6-[(3S)-3-methylmorpholin-4-yl]pyrimidin-2-yl]phenyl]-3-methylthiourea], the IC50 amounted to 11 nM.
With `CNC(=S)Nc1ccc(-c2nc(N3CCOC[C@@H]3C)cc(C(C)(C)S(C)(=O)=O)n2)cc1` [Example 2a, 3-methyl-1-[4-[4-[(3S)-3-methylmorpholin-4-yl]-6-(2-methylsulfonylpropan-2-yl)pyrimidin-2-yl]phenyl]thiourea], the IC50 came to 5.1 nM.
Next, `C[C@H]1COCCN1c1cc(CS(C)(=O)=O)nc(-c2ccc(NC(=S)Nc3ccc(F)cc3)cc2)n1` [Example 1d, 3-(4-fluorophenyl)-1-[4-[4-[(3S)-3-methylmorpholin-4-yl]-6-(methylsulfonylmethyl)pyrimidin-2-yl]phenyl]thiourea]: 21.5 nM.
On to `CCNC(=S)Nc1ccc(-c2nc(CS(C)(=O)=O)cc(N3CCOC[C@@H]3C)n2)cc1` [Example 1a, 3-ethyl-1-[4-[4-[(3S)-3-methylmorpholin-4-yl]-6-(methylsulfonylmethyl)pyrimidin-2-yl]phenyl]thiourea], for which the IC50 was determined as 17.7 nM.
Turning to `C[C@H]1COCCN1c1cc(C(C)(C)O)nc(-c2ccc(NC(=S)NCCO)cc2)n1` [Example 5, 3-(2-Hydroxyethyl)-1-[4-[4-(2-hydroxypropan-2-yl)-6-[(3S)-3-methylmorpholin-4-yl]pyrimidin-2-yl]phenyl]thiourea], the IC50 is 7.9 nM.
As to `C[C@H]1COCCN1c1cc(C(C)(C)S(C)(=O)=O)nc(-c2ccc(NC(=S)NC3CC3)cc2)n1` [Example 2, 3-Cyclopropyl-1-[4-[4-[(3S)-3-methylmorpholin-4-yl]-6-(2-methylsulfonylpropan-2-yl)pyrimidin-2-yl]phenyl]thiourea], the IC50 was 4.77 nM.
To `C[C@H]1COCCN1c1cc(C(C)(C)S(C)(=O)=O)nc(-c2ccc(NC(=S)NCCN(C)C)cc2)n1` [Example 2d, 3-(2-dimethylaminoethyl)-1-[4-[4-[(3S)-3-methylmorpholin-4-yl]-6-(2-methylsulfonylpropan-2-yl)pyrimidin-2-yl]phenyl]thiourea] belongs 305 nM; to `C[C@H]1COCCN1c1cc(CS(C)(=O)=O)nc(-c2ccc(NC(=S)NC3CC3)cc2)n1` [Example 1, 3-Cyclopropyl-1-[4-[4-[(3S)-3-methylmorpholin-4-yl]-6-(methylsulfonylmethyl)pyrimidin-2-yl]phenyl]thiourea], 19.7 nM.

The record behind these values is US8138183B2, “Morpholino pyrimidine derivatives used in diseases linked to mTOR kinase and/or PI3K” (AstraZeneca AB, priority 2007, dated 2012).
